Measured values reported in PMC6526634, “Preparation of bioactive peptides with antidiabetic, antihypertensive, and antioxidant activities and identification of α‐glucosidase inhibitory peptides from soy protein” (Food Science & Nutrition, 2019).
Where a SMILES comes first, the peptide text is derived from it.

Columns and labels:
[1] = target: T1, α‐glucosidase from Saccharomyces cerevisiae (Saccharomyces cerevisiae, UniProt P53341); experiment: α‐glucosidase inhibitory activity assay; type: biochemical
T1 construct: purchased Sigma-Aldrich
Experimental: All other chemicals and reagents were of analytical grade and commercially available.
α‐glucosidase inhibitory activity assay was performed according to a method by Kim with slight modifications (Kim, Wang, & Rhee, 2004). The α‐glucosidase inhibitory rate of the hydrolysate was estimated in a 96‐well microplate using a MR‐96A microplate reader (Mindray) by monitoring the amount of 4‐nitrophenol (PNP) released from 4‐nitrophenol‐α‐D‐glucopyranoside (PNPG). A dose (50 μl) of sodium phosphate buffer (pH 6.8, 0.2 M), 50 μL of PNPG (1 mg/ml) dissolved in sodium phosphate buffer, and 50 μl of the samples dissolved in the same buffer were mixed adequately in a 96‐well microplate. Then, it was incubated for 5 min at 37°C, and the reaction started immediately followed by the addition of 10 μl of α‐glucosidase solution (0.2 U/ml of the buffer). The plate was incubated for another 30 min at 37°C, and then, the reaction was terminated by the addition of 80 μl of 1 M Na2CO3 solution. The absorbance of released product PNP was measured immediately at 405 nm. […] The percentage of α‐glucosidase inhibition was calculated as follows:(1) α-glucosidase inhibition rate%=ODA-ODS/ODA-ODB×100 where ODA is the absorbance of the supernatant in which the sample is replaced by the same amount of buffer; ODS is the absorbance of the supernatant with the tested sample; and ODBis the absorbance of the supernatant in which the tested sample and α‐glucosidase solution are replaced by the same amount of buffer.

[2] = Ferric reducing antioxidant power (FRAP) activity; settings: 1, 2, 5, 10, and 20 mg/ml, potassium ferricyanide, pH 6.6, 50℃, 30 min, absorbance 700 nm
Experimental: The FRAP assay was used to determine the antioxidative of the samples using the method described by Tsai et al with some modifications (Tsai, Huang, & Mau, 2006) and to configure the sample solution with the concentration of 1, 2, 5, 10, and 20 mg/ml. Using 1 ml of sample mixed with 2.5 ml of 0.2 mol/L sodium phosphate buffer (pH 6.6) and 2.5 ml of 1% potassium ferricyanide solution incubated at 50℃ for 30 min, add 2.5 ml of 10% trichloroacetic acid solution, centrifuged at 1,042 g for 10 min, and then collected 2.5 ml of supernatant mixed with 2.5 ml of distilled water and 0.5 ml of 0.1% ferric chloride solution. The absorbance at 700 nm was measured after 10 min by a 754 PC spectrophotometer (Shanghai, China). FeSO4 aqueous solution was used as positive control.

[3] = Hydroxyl radical scavenging ability; settings: Fenton reaction, salicylic acid, 37℃, 30 min, absorbance 510 nm; mean ± SD of three replicates
Experimental: The antioxidant activity of the soy protein peptides was determined by a hydroxyl radical scavenging assay involving in the Fenton reaction, according to Hanasaki (Hanasaki, Ogava, & Fukui, 1994). The samples were prepared into 0.1, 0.5, 2, 5, and 10 mg/ml. Then, 1 ml of 9 µmol/L FeSO4 solution and 1 ml of salicylic acid–ethanol solution (9 µmol/L，50% ethanol solution) were added respectively and mixed well, with the addition of 1 ml of […] H2O2 (0.03%) reaction initiated. The mixture was incubated in a 37℃ water bath for 30 min and then centrifuged at 2,896 g for 5 min to remove the precipitation. The absorbance of the supernatant was measured at 510 nm. The hydroxyl radical clearance rate was calculated as follows:(4) Hydroxyl radical clearance rate%=1-A1-A2/A0×100 where A 1 is the absorbance of the sample supernatant, A 2 is the absorbance of the supernatant in which the salicylic acid–ethanol is replaced by the same amount of ethanol, and A 0 is the absorbance of the supernatant in which the sample is replaced by distilled water. The ascorbic acid was used as a positive control.

T1 sequence (P53341 whole entry): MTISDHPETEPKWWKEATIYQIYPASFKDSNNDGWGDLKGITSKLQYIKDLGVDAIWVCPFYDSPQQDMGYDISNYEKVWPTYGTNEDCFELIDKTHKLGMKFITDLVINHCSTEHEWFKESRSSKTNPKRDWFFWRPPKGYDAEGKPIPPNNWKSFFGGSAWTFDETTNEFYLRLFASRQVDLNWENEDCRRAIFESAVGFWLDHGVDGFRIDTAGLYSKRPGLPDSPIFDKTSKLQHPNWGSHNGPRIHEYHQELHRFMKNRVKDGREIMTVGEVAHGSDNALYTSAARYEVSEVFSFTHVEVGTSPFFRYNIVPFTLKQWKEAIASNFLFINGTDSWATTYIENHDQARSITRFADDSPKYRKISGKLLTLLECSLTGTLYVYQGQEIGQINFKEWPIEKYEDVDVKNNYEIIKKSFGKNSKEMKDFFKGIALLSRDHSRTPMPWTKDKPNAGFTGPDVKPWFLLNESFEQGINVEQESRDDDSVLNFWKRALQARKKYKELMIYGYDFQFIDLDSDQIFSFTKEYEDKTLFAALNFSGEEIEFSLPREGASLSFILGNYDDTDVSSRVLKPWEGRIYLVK

## CC(C)C[C@H](NC(=O)[C@H](CCCNC(=N)N)NC(=O)[C@H](CC(C)C)NC(=O)[C@H](Cc1c[nH]c2ccccc12)NC(=O)[C@@H](N)CO)C(=O)O [SWLRL] (H-SWLRL-OH)
[1]
  IC50: 182.1 ± 0.74 µM

## ferrous sulfate [FeSO4]
[2]
  iron ion reduction ability (FRAP): linearly related to concentration
[2]; listed as ferrous sulfate
  iron ion reduction ability (FRAP): stronger reduction ability

## O=C1O[C@H]([C@@H](O)CO)C(O)=C1O [vitamin C, ascorbic acid]
[3]
  hydroxyl radical scavenging ability IC50: 540 ± 40 mg/L

## MLPVMR [hexapeptide identified from soy protein AP hydrolysate fraction H1‐2, then synthesized]
[1]; synthetic peptide or DEAE‐52 fraction, test concentration not given
  α‐glucosidase inhibition, result in words: did not show inhibitory activity

## CC(C)C[C@H](NC(=O)[C@H](CCCNC(=N)N)NC(=O)[C@H](CC(C)C)NC(=O)[C@@H](N)Cc1c[nH]c2ccccc12)C(=O)O [WLRL] (H-WLRL-OH)
[1]
  IC50: 165.3 ± 0.74 µM

## CC(C)C[C@H](NC(=O)[C@@H](NC(=O)[C@@H]1CCCN1C(=O)[C@H](CC(C)C)NC(=O)[C@@H]1CCCN1C(=O)[C@H](CC(C)C)NC(=O)[C@@H](N)CC(C)C)C(C)C)C(=O)N[C@@H](CCCCN)C(=O)O (H-LLPLPVLK-OH)
[1]
  IC50: 237.4 ± 0.52 µM
